Converted amounts (≈) assume the structure as drawn.
Legend:
Escherichia coli [1] = experiment: Antibacterial activity against Escherichia coli at 100 ug/disk after 24 hr by disk diffusion test; details: read-out: IZ
Staphylococcus aureus [2] = experiment: Antibacterial activity against Staphylococcus aureus at 100 ug/disc after 24 hr by disk diffusion test; details: read-out: IZ
Staphylococcus aureus [3] = experiment: Antibacterial activity against Staphylococcus aureus after 24 hr by agar plate method; format: functional
Pseudomonas aeruginosa [4] = experiment: Antibacterial activity against Pseudomonas aeruginosa after 24 hr by agar plate method; format: functional
Bacillus subtilis [5] = experiment: Antibacterial activity against Bacillus subtilis after 24 hr by agar plate method; format: functional
Escherichia coli [6] = experiment: Antibacterial activity against Escherichia coli after 24 hr by agar plate method; format: functional
Pseudomonas aeruginosa [7] = experiment: Antibacterial activity against Pseudomonas aeruginosa at 100 ug/disk after 24 hr by disk diffusion test; details: read-out: IZ
Bacillus subtilis [8] = experiment: Antibacterial activity against Bacillus subtilis at 100 ug/disk after 24 hr by disk diffusion test; details: read-out: IZ
Aspergillus niger [9] = experiment: Antifungal activity against Aspergillus niger at 100 ug/disk after 48 hr by disk diffusion test; format: functional; details: read-out: IZ
Candida albicans [10] = experiment: Antifungal activity against Candida albicans after 48 hr by agar plate method; format: functional
Candida albicans [11] = experiment: Antifungal activity against Candida albicans at 100 ug/disk after 48 hr by disk diffusion test; format: functional; details: read-out: IZ
Aspergillus niger [12] = experiment: Antifungal activity against Aspergillus niger after 48 hr by agar plate method; format: functional

| Compound | zone of inhibition at 100 µg/disc (Escherichia coli [1]) | zone of inhibition at 100 µg/disc (Staphylococcus aureus [2]) | MIC (Staphylococcus aureus [3]) | MIC (Pseudomonas aeruginosa [4]) | MIC (Bacillus subtilis [5]) | MIC (Escherichia coli [6]) | zone of inhibition at 100 µg/disc (Pseudomonas aeruginosa [7]) | zone of inhibition at 100 µg/disc (Bacillus subtilis [8]) | zone of inhibition at 100 µg/disc (Aspergillus niger [9]) | MIC (Candida albicans [10]) | zone of inhibition at 100 µg/disc (Candida albicans [11]) | MIC (Aspergillus niger [12]) |
| --- | --- | --- | --- | --- | --- | --- | --- | --- | --- | --- | --- | --- |
| O=C(O)c1cn(C2CC2)c2cc(N3CCNCC3)c(F)cc2c1=O [CIPROFLOXACIN] | 32 mm | 29 mm | 3.12 µg/mL (≈ 9.43 µM) | 3.12 µg/mL (≈ 9.43 µM) | 3.12 µg/mL (≈ 9.43 µM) | 3.12 µg/mL (≈ 9.43 µM) | 33 mm | 29 mm |  |  |  |  |
| CC(=O)N1CCN(c2ccc(OCC3COC(Cn4ccnc4)(c4ccc(Cl)cc4Cl)O3)cc2)CC1 (configuration not stated) [KETOCONAZOLE] |  |  |  |  |  |  |  |  | 30 mm | 3.12 µg/mL (≈ 5.88 µM) | 33 mm | 6.25 µg/mL (≈ 11.8 µM) |

Reference: ChEMBL document CHEMBL3045112, “In vitro antimicrobial assessment of coumarin-based s-triazinyl piperazines” (2012)
